Data from paper PMC9556331, “Structural basis for directional chitin biosynthesis” (Nature, 2022).
Changes are numbered by the printed parent chain. In names and notes the source's numbering stands.

Columns and labels:
chitin synthase PsChs1 [1] = target: T1, chitin synthase PsChs1 (Phytophthora sojae, UniProt G4Z2L3); experiment: cryo-EM structure ([…] Å) plus enzyme inhibition kinetics (competitive Ki); format: biochemical
T1 construct: gene CHS1; full-length PsChs1 with C-terminal tandem twin Strep tag and Flag tag; residues 40-860 built, 743-758 disordered; homodimer

chitin synthase PsChs1 [2] = target: T1, chitin synthase PsChs1; experiment: cryo-EM structure ([…] Å); format: binding
[3] = target: the molecule itself; experiment: AUC; purified recombinant PsChs1 in the presence of detergent; molar mass of the main peak compared with the 107 kDa monomer
[4] = target: the molecule itself; experiment: cryo-EM structure; purified protein at about 5 mg/ml in digitonin buffer; apo or with UDP-GlcNAc, UDP/(GlcNAc)3, UDP or NikZ; C2 symmetry imposed

Question: How did the Ki (chitin synthase PsChs1 [1]) turn out when `C[C@@H]([C@H](N)C(=O)N[C@H](C(=O)O)[C@H]1O[C@@H](n2ccc(=O)[nH]c2=O)[C@H](O)[C@@H]1O)[C@H](O)c1ccc(O)cn1` [NikZ, nikkomycin Z] was run?
Answer: 151 ± 4.8 µM

Question: Which “cryo-EM structure (3.1 Å)” value (chitin synthase PsChs1 [2]) does the source give for `O=c1ccn([C@@H]2O[C@H](COP(=O)(O)OP(=O)(O)O)[C@@H](O)[C@H]2O)c(=O)[nH]1` [UDP] here?
Answer: The UDP-bound dimeric PsChs1 structure represents its nascent chitin-released state

B1: Phytophthora sojae chitin synthase PsChs1 (enzyme)
chain: MSGAPPPSSGFAPRSYGQQPLSHAPRSSMMSVEYDGIPLPPPSIRSCGSQQYVTSYIPTGAAFPPSSVQDMISSMKSYASATDLVRTYSEIPSVEEALSTLDRAAAALNARRYRDALKLYLEGGYAMANVAERQANPKICNLLTSKGFETLNWCARLCDWIEGRIKEKHPRPGVHKVGIPVSNWDEDWVGPFMDEEEARRMWYTPVYCPHPIDFSNLGYRLRCVETGRRPRLMICITMYNEGPQQLKATLKKLANNLAYLKEQMPGDEKSLTGAFAGDDVWQNVLVCIVADGREQVHPKTLDYLEAIGLYDEDLLTINSAGIGAQCHLFEHTLQLSVNGKCLLPIQTVFALKENKASKLDSHHWYFNAFAEQIQPEYTAVMDVGTMLTKSALYHLLFAFERNHQIGGACGQLTVDNPFENLSNWVISAQHFEYKISNILDKSLESCFGFISVLPGAFSAYRYEAIRGAPLDAYFQTLNIELDVLGPFIGNMYLAEDRILSFEVVARKNCNWTMHYVKDAVARTDVPHDLVGLISQRKRWLNGAFFATLFSIWNWGRIYSESKHTFVRKMAFLVFYVYHLLYTAFGFFLPANLYLALFFIVFQGFQQNRLEFIDTSEYSQTVLDCAVYIYNFSYLFGLLMLIIIGLGNNPKHMKLTYYFVGAVFGLMMMLSSLVGAGIFFSTPATVHSIVVSILTVGVYFIASALHGEVHHIFMTFTHYTALIPSFVNIFTIYSFCNLQDLSWGTKGLHDDPLLAASLDETEKGDFKDVIAKRRALEELRREEKERVENRKKNFEAFRTNVLLTWAFSNLIFALFVVYFASSSTYMPVLYIFVASLNTCRLLGSIGHWVYIHTEGLRGRVIDKSECGNGTGRYPQNSYVQLEEHYAALAEDQRTYASGRTNASVRTVNDVSSAA
notes: also called native PsChs1; wild-type PsChs1
Question: For B1, which “stoichiometry N” value [3] is on record?
Answer: 2

B2: PsChs1 E495A (used for the UDP-GlcNAc-bound structure) (enzyme)
chain: B1 chain with E495A
notes: source: HEK293F, transiently transfected, purified as the native PsChs1 (Strep-TactinXT, anti-Flag M2 resin, SEC)
Question: With B2 as the molecule, how does the “stoichiometry N” value [4] read?
Answer: 2
